How the values were obtained:
Assay type in all cases: in vivo
potato = assay: Example 9 drying stress test (potato), soil culture; conditions: 23° C., 100 ppm, 2 weeks; for Fresh weight, relative value (untreated plot = 100), Test 1 / Fresh weight, relative value (untreated plot = 100), Test 4 / Fresh weight, relative value (untreated plot = 100), Test 2 / Fresh weight, relative value (untreated plot = 100), Test 3: potato soil culture; for Fresh weight, relative value (untreated plot = 100), Test 1: EC 1, pF 2.8, two-leaf stage; for Fresh weight, relative value (untreated plot = 100), Test 4: EC 1, pF 3.5, five-leaf stage; for Fresh weight, relative value (untreated plot = 100), Test 2: EC 1, pF 3.5, two-leaf stage; for Fresh weight, relative value (untreated plot = 100), Test 3: EC 1, pF 4.1, two-leaf stage; for Fresh weight, relative value (untreated plot = 100), Comparison 1: stress-free: potato soil culture, EC 1, pF 1.7, two-leaf stage
Description: The environmental conditions in a climatic chamber were controlled so as to have a temperature of 23° C., an illuminance by a fluorescent light of 5000 Lux, and a daily light-dark cycle of a 16-hour light period and an 8-hour dark period. Potatoes as prepared above were transplanted in size-5 (15 cm) pots. During the test period, the pF value was controlled by adding a suitable amount of tap water once a day so as to attain a specific drying stress value. A treatment solution containing a compound of Table 5 in a specific concentration (the remainder was water) was prepared and sprayed onto the leaves or applied to the underground portions. […] A comparative example was constructed to reflect the drying stress-free optimum cultivation conditions to investigate the plant energizing ability. […] Moreover, when the products of the present invention and the comparative products were compared, the stress tolerance imparting ability of the products of the present invention was higher in respective drying stress conditions.

tomato = assay: Example 8 temperature stress test (tomato), soil culture; conditions: 100 ppm, 2 weeks; for Fresh weight, relative value (untreated plot = 100), Comparison 1: stress-free: tomato soil culture, cultivation temperature 23, EC 1, pF 1.7, two-leaf stage; for Fresh weight, relative value (untreated plot = 100), Test 1 / Fresh weight, relative value (untreated plot = 100), Test 2 / Fresh weight, relative value (untreated plot = 100), Test 3 / Fresh weight, relative value (untreated plot = 100), Test 4: tomato soil culture; for Fresh weight, relative value (untreated plot = 100), Test 1: cultivation temperature 10, EC 1, pF 1.7, two-leaf stage; for Fresh weight, relative value (untreated plot = 100), Test 2: cultivation temperature 16, EC 1, pF 1.7, two-leaf stage; for Fresh weight, relative value (untreated plot = 100), Test 3: cultivation temperature 29, EC 1, pF 1.7, two-leaf stage; for Fresh weight, relative value (untreated plot = 100), Test 4: cultivation temperature 35, EC 1, pF 1.7, two-leaf stage
Description: Other Conditions were as in Example 5. The environmental conditions in a climatic chamber were controlled so as to have an illuminance by a fluorescent light of 5000 Lux, a daily light-dark cycle of a 16-hour light period and an 8-hour dark period, and various temperatures. Tomatoes as prepared above were transplanted in size-3 (9 cm) pots. A treatment solution containing a compound of Table 1 in a specific concentration (the remainder was water) was prepared and sprayed onto the leaves or applied to the underground portions. […] A comparative example was constructed to reflect the temperature stress-free optimum cultivation conditions to investigate the plant energizing ability. […] Moreover, when the products of the present invention and the comparative products were compared, the stress tolerance imparting ability of the products of the present invention was higher in respective temperature stress conditions.

“Momotaro” tomato [1] = assay: Example 2 temperature stress tolerance imparting test (tomato); conditions: 2 weeks
Description: Other cultivation conditions were the same as the conditions of the temperature stress test. […] (2) Solution culture medium: […] Method of Temperature Stress Tolerance Imparting Test The temperature in a climatic chamber was controlled so as to be 10, 15, or 32° C. The environmental conditions were controlled so as to have an illuminance by a fluorescent light of 5000 Lux and a daily light-dark cycle of a 16-hour light period and a 8-hour dark period. In this test, a temperature of 23° C. at which the optimum growth was observed was regarded as a reference temperature (temperature stress-free test condition), and a stress was imposed by applying a temperature higher or lower than the reference temperature. A tomato as prepared above was planted in a 250 ml polyethylene bottle filled with the solution culture medium (½ Otsuka A formulation). A treatment solution as presented in Table 1 was sprayed onto the leaves or applied to the underground portion. […] Ten specimens were prepared for each of the test plot and the control plots, and a plant stress level and an extent of imparting plant stress tolerance were calculated according to Formula (ii) and (iii) above using as a fresh plant body weight the average of the fresh plant body weights of each specimen 2 weeks after the beginning of the test.

“Momotaro” tomato [2] = assay: Example 3 drying stress tolerance imparting test (tomato); conditions: 3 weeks
Description: Other cultivation conditions were as with the conditions of the drying stress test. Drying stress conditions: soil pF value: 2.3, 2.5, or 2.9, cultivation temperature: 23° C., relative humidity: 50%, illuminance: 5000 Lux (fluorescent light), light/dark cycle: 16 hours/8 hours (2) Cultivation period: 3 weeks (3) Soil: Kureha gardening soil manufactured by Kureha Corporation (fertilizer components: N:P:K=0.4:1.9:0.6 g/kg soil) (4) Plant preparation: A 50-cell tray was filled with Kureha gardening soil manufactured by Kureha Corporation (fertilizer components: N:P:K=0.4:1.9:0.6 g/kg soil), and seeds of a “Momotaro” tomato were sowed, thinly covered with Kureha gardening soil, and sufficiently watered to allow the seeds to sprout. When the leaves in the 2-leaf stage fully unfolded, the soil on the tomato roots was carefully washed away with running water, and a test was performed. (5) The chemicals used and the amount of a treatment solution applied were as in Example 1. (6) Amount of treatment solution applied: 10 ml/specimen for leaf spraying, 50 ml/specimen for fertigation Method of Drying Stress Tolerance Imparting Test Five tomato specimens as prepared above were planted in a 60-cm planter placed on a plant culture rack in an air-conditioned room. […] From immediately after planting the tomatoes, a treatment solution of Table 1 was sprayed onto the leaves or applied to the underground portions once a week. […] Five specimens (per planter) were prepared for each of the test plot and the control plots, plant bodies were collected 3 weeks after the beginning of the test such that the roots were not cut, the soil was washed away with running water, the fresh plant body-weights were measured, and a plant stress level and an extent of imparting plant stress tolerance were calculated according to Formula (ii) and (iii) above using the average of the weights.

[3] = pF 2.3, leaf, 100 ppm once a week
[4] = pF 2.5, leaf, 100 ppm once a week
[5] = pF 2.9, leaf, 100 ppm once a week

Molecule: POE (20) sorbitan monooleic acid ester [Product of present invention 1]
- Fresh weight, relative value (untreated plot = 100), Test 1 (potato; underground portion): 133
- Fresh weight, relative value (untreated plot = 100), Test 4 (potato; underground portion): 156
- Fresh weight, relative value (untreated plot = 100), Test 2 (potato; underground portion): 185
- Fresh weight, relative value (untreated plot = 100), Test 3 (potato; underground portion): 140
- Fresh weight, relative value (untreated plot = 100), Comparison 1 (potato; underground portion): 102
- Fresh weight, relative value (untreated plot = 100), Comparison 1 (tomato; underground portion): 103
- Fresh weight, relative value (untreated plot = 100), Test 1 (tomato; underground portion): 128
- Fresh weight, relative value (untreated plot = 100), Test 2 (tomato; underground portion): 131
- Fresh weight, relative value (untreated plot = 100), Test 3 (tomato; underground portion): 158
- Fresh weight, relative value (untreated plot = 100), Test 4 (tomato; underground portion): 138
- Extent of imparting plant stress tolerance (“Momotaro” tomato [1]; 10° C., leaf, 100 ppm): 125%
- Extent of imparting plant stress tolerance (“Momotaro” tomato [1]; 10° C., underground portion, 100 ppm): 140%
- Extent of imparting plant stress tolerance (“Momotaro” tomato [1]; 15° C., leaf, 100 ppm): 117%
- Extent of imparting plant stress tolerance (“Momotaro” tomato [1]; 15° C., underground portion, 100 ppm): 130%
- Extent of imparting plant stress tolerance (“Momotaro” tomato [1]; 32° C., leaf, 1 ppm): 113%
- Extent of imparting plant stress tolerance (“Momotaro” tomato [1]; 32° C., leaf, 10 ppm): 113%
- Extent of imparting plant stress tolerance (“Momotaro” tomato [1]; 32° C., leaf, 100 ppm): 114%
- Extent of imparting plant stress tolerance (“Momotaro” tomato [1]; 32° C., leaf, 1000 ppm): 119%
- Extent of imparting plant stress tolerance (“Momotaro” tomato [1]; 32° C., underground portion, 100 ppm): 127%
- Extent of imparting plant stress tolerance (“Momotaro” tomato [2]; pF 2.3, leaf, 1 ppm once a week): 112%
- Extent of imparting plant stress tolerance (“Momotaro” tomato [2]; pF 2.3, leaf, 10 ppm once a week): 113%
- Extent of imparting plant stress tolerance (“Momotaro” tomato [2]; [3]): 113%
- Extent of imparting plant stress tolerance (“Momotaro” tomato [2]; pF 2.3, leaf, 1000 ppm once a week): 117%
- Extent of imparting plant stress tolerance (“Momotaro” tomato [2]; pF 2.3, underground portion, 100 ppm once a week): 129%
- Extent of imparting plant stress tolerance (“Momotaro” tomato [2]; [4]): 117%
- Extent of imparting plant stress tolerance (“Momotaro” tomato [2]; pF 2.5, underground portion, 100 ppm once a week): 128%
- Extent of imparting plant stress tolerance (“Momotaro” tomato [2]; [5]): 124%
- Extent of imparting plant stress tolerance (“Momotaro” tomato [2]; pF 2.9, underground portion, 100 ppm once a week): 135%

Molecule: POE (20) sorbitan monostearic acid ester [Product of present invention 14]
- Extent of imparting plant stress tolerance (“Momotaro” tomato [1]; 32° C., leaf, 100 ppm): 118%
- Extent of imparting plant stress tolerance (“Momotaro” tomato [2]; [3]): 115%

Molecule: POE (20) sorbitan monopalmitic acid ester [Product of present invention 13]
- Extent of imparting plant stress tolerance (“Momotaro” tomato [1]; 32° C., leaf, 100 ppm): 116%
- Extent of imparting plant stress tolerance (“Momotaro” tomato [2]; [3]): 116%

Molecule: Sucrose fatty acid ester (C16, HLB = 15) [Product of present invention 21]
- Extent of imparting plant stress tolerance (“Momotaro” tomato [1]; 32° C., leaf, 100 ppm): 116%
- Extent of imparting plant stress tolerance (“Momotaro” tomato [2]; [3]): 117%

Molecule: Sorbitan monooleic acid ester [Product of present invention 11]
- Extent of imparting plant stress tolerance (“Momotaro” tomato [1]; 32° C., leaf, 100 ppm): 113%
- Extent of imparting plant stress tolerance (“Momotaro” tomato [2]; [3]): 112%

Molecule: O=C(O)[C@@H]1CCCN1 [Comparative product 2, Proline, reference compound]
- Fresh weight, relative value (untreated plot = 100), Test 1 (potato; leaf): 102
- Fresh weight, relative value (untreated plot = 100), Test 1 (potato; underground portion): 102
- Fresh weight, relative value (untreated plot = 100), Test 4 (potato; leaf): 101
- Fresh weight, relative value (untreated plot = 100), Test 4 (potato; underground portion): 100
- Fresh weight, relative value (untreated plot = 100), Test 2 (potato; leaf): 102
- Fresh weight, relative value (untreated plot = 100), Test 2 (potato; underground portion): 102
- Fresh weight, relative value (untreated plot = 100), Test 3 (potato; leaf): 101
- Fresh weight, relative value (untreated plot = 100), Test 3 (potato; underground portion): 101
- Fresh weight, relative value (untreated plot = 100), Comparison 1 (potato; leaf): 101
- Fresh weight, relative value (untreated plot = 100), Comparison 1 (potato; underground portion): 102
- Fresh weight, relative value (untreated plot = 100), Comparison 1 (tomato; leaf): 101
- Fresh weight, relative value (untreated plot = 100), Comparison 1 (tomato; underground portion): 102
- Fresh weight, relative value (untreated plot = 100), Test 1 (tomato; leaf): 100
- Fresh weight, relative value (untreated plot = 100), Test 1 (tomato; underground portion): 100
- Fresh weight, relative value (untreated plot = 100), Test 2 (tomato; leaf): 100
- Fresh weight, relative value (untreated plot = 100), Test 2 (tomato; underground portion): 100
- Fresh weight, relative value (untreated plot = 100), Test 3 (tomato; leaf): 101
- Fresh weight, relative value (untreated plot = 100), Test 3 (tomato; underground portion): 101
- Fresh weight, relative value (untreated plot = 100), Test 4 (tomato; leaf): 101
- Fresh weight, relative value (untreated plot = 100), Test 4 (tomato; underground portion): 100
- Extent of imparting plant stress tolerance (“Momotaro” tomato [1]; 10° C., leaf, 100 ppm): 102%
- Extent of imparting plant stress tolerance (“Momotaro” tomato [1]; 15° C., leaf, 100 ppm): 102%
- Extent of imparting plant stress tolerance (“Momotaro” tomato [1]; 32° C., leaf, 100 ppm): 102%
- Extent of imparting plant stress tolerance (“Momotaro” tomato [2]; [3]): 103%
- Extent of imparting plant stress tolerance (“Momotaro” tomato [2]; [4]): 102%
- Extent of imparting plant stress tolerance (“Momotaro” tomato [2]; [5]): 103%

Molecule: POE (6) sorbitan monooleic acid ester [Product of present invention 10]
- Extent of imparting plant stress tolerance (“Momotaro” tomato [1]; 32° C., leaf, 100 ppm): 114%
- Extent of imparting plant stress tolerance (“Momotaro” tomato [2]; [3]): 112%

Molecule: Sucrose fatty acid ester (C18, HLB = 11) [Product of present invention 19]
- Extent of imparting plant stress tolerance (“Momotaro” tomato [1]; 32° C., leaf, 100 ppm): 114%
- Extent of imparting plant stress tolerance (“Momotaro” tomato [2]; [3]): 115%

Molecule: Sucrose fatty acid ester (C18:1, HLB = 15) [Product of present invention 22]
- Extent of imparting plant stress tolerance (“Momotaro” tomato [1]; 32° C., leaf, 100 ppm): 115%
- Extent of imparting plant stress tolerance (“Momotaro” tomato [1]; 32° C., leaf, 200 ppm): 113%
- Extent of imparting plant stress tolerance (“Momotaro” tomato [2]; [3]): 117%
- Extent of imparting plant stress tolerance (“Momotaro” tomato [2]; pF 2.3, leaf, 200 ppm once a week): 113%

Molecule: Alkyl (C12-14) polyglycoside [Product of present invention 16]
- Fresh weight, relative value (untreated plot = 100), Test 1 (potato; leaf): 120
- Fresh weight, relative value (untreated plot = 100), Test 4 (potato; leaf): 132
- Fresh weight, relative value (untreated plot = 100), Test 2 (potato; leaf): 140
- Fresh weight, relative value (untreated plot = 100), Test 3 (potato; leaf): 120
- Fresh weight, relative value (untreated plot = 100), Comparison 1 (potato; leaf): 101
- Extent of imparting plant stress tolerance (“Momotaro” tomato [1]; 32° C., leaf, 100 ppm): 116%
- Extent of imparting plant stress tolerance (“Momotaro” tomato [2]; [3]): 118%

Molecule: Sucrose fatty acid ester (C18, HLB = 9) [Product of present invention 18]
- Extent of imparting plant stress tolerance (“Momotaro” tomato [1]; 32° C., leaf, 100 ppm): 113%
- Extent of imparting plant stress tolerance (“Momotaro” tomato [2]; [3]): 113%

From US20110100079A1, “METHOD FOR IMPARTING STRESS TOLERANCE TO PLANT” (priority 2007, published 2011)
